pIC50: −log10 of the molar value.
Tests used:
Mtb H37Rv = experiment: Minimum inhibitory concentration; settings: for fold drop/change in potency (MIC) relative to parent compound 1: versus lead 1
Mtb = settings: in Mtb; cited from earlier work
IκB kinase β = settings: cited from earlier work
[1] = test system: murine macrophage cell line J774.1; experiment: Cytotoxicity by Alamar Blue, 3 days; format: cell-based; settings: J774.1 cells, two-fold dilutions starting at 60 µM

Compound: O=C(Nc1cc(C(F)(F)F)cc(C(F)(F)F)c1)c1cc(I)ccc1O [Compound 9, N-(3,5-Bis(trifluoromethyl)phenyl)-2-hydroxy-5-iodobenzamide]
- fold drop/change in potency (MIC) relative to parent compound 1 (Mtb H37Rv): 2 fold

Compound: O=C(Nc1ccc([N+](=O)[O-])cc1Cl)c1cc(Cl)ccc1O [niclosamide]
- effect on membrane potential and pH homeostasis (Mtb): disruption of membrane potential and pH homeostasis

Compound: O=C(Nc1cccc(Br)c1)c1cc(Cl)ccc1O [Compound 35, N-(3-Bromophenyl)-5-chloro-2-hydroxybenzamide]
- fold drop/change in potency (MIC) relative to parent compound 1 (Mtb H37Rv): 2–4 fold

Compound: O=C(Nc1cccc(F)c1)c1cc(Cl)ccc1O [Compound 34, 5-Chloro-N-(3-fluorophenyl)-2-hydroxybenzamide]
- fold drop/change in potency (MIC) relative to parent compound 1 (Mtb H37Rv): 2–4 fold

Compound: O=C(Nc1cc(C(F)(F)F)cc(C(F)(F)F)c1)c1ccccc1O [Compound 2, N-(3,5-Bis(trifluoromethyl)phenyl)-2-hydroxybenzamide]
- fold drop/change in potency (MIC) relative to parent compound 1 (Mtb H37Rv): 2–4 fold

Compound: O=C(Nc1cc(C(F)(F)F)cc(C(F)(F)F)c1)c1cc(F)ccc1O [Compound 7, N-(3,5-Bis(trifluoromethyl)phenyl)-5-fluoro-2-hydroxy-benzamide]
- fold drop/change in potency (MIC) relative to parent compound 1 (Mtb H37Rv): 2 fold

Compound: O=C(Nc1cc(C(F)(F)F)cc(C(F)(F)F)c1)c1cc(Br)ccc1O [Compound 8, N-(3,5-Bis(trifluoromethyl)phenyl)-5-bromo-2-hydroxybenzamide]
- fold drop/change in potency (MIC) relative to parent compound 1 (Mtb H37Rv): 2 fold

Compound: O=C(Nc1ccccc1)c1cc(Cl)ccc1O [Compound 26, 5-Chloro-2-hydroxy-N-phenylbenzamide]
- fold drop/change in potency (MIC) relative to parent compound 1 (Mtb H37Rv): 4–8 fold

Compound: O=C(Nc1ccccc1C(F)(F)F)c1cc(Cl)ccc1O [Compound 28, 5-Chloro-2-hydroxy-N-(2-trifluoromethyl-phenyl)-benzamide]
- fold loss in activity on moving single CF3 from meta to ortho (Mtb H37Rv; versus meta-CF3 compound 27): 4–8 fold

Compound: O=C(Nc1cc(C(F)(F)F)cc(C(F)(F)F)c1)c1cc(Cl)ccc1O [Compound 1, N-(3,5-bis(trifluoromethyl)phenyl)-5-chloro-2-hydroxybenzamide]
- inhibition of IκB kinase β (IκB kinase β): potent inhibitor

Compound: N-(3-Bromo-5-(trifluoromethyl)phenyl)-5-chloro-2-hydroxy-benzamide [Compound 74]
- pIC50 [1]: 5.24
